IC50 data for 30 molecules are collected here from patent publication US11358969B2, “Indole AHR inhibitors and uses thereof” (Ikena Oncology, Inc., priority 2017, dated 2022).

Bounds are passed on as bounds.

The assay addresses T1, AHR (UniProt P35869).
T1 construct: IC50
T1 sequence (P35869 1-848): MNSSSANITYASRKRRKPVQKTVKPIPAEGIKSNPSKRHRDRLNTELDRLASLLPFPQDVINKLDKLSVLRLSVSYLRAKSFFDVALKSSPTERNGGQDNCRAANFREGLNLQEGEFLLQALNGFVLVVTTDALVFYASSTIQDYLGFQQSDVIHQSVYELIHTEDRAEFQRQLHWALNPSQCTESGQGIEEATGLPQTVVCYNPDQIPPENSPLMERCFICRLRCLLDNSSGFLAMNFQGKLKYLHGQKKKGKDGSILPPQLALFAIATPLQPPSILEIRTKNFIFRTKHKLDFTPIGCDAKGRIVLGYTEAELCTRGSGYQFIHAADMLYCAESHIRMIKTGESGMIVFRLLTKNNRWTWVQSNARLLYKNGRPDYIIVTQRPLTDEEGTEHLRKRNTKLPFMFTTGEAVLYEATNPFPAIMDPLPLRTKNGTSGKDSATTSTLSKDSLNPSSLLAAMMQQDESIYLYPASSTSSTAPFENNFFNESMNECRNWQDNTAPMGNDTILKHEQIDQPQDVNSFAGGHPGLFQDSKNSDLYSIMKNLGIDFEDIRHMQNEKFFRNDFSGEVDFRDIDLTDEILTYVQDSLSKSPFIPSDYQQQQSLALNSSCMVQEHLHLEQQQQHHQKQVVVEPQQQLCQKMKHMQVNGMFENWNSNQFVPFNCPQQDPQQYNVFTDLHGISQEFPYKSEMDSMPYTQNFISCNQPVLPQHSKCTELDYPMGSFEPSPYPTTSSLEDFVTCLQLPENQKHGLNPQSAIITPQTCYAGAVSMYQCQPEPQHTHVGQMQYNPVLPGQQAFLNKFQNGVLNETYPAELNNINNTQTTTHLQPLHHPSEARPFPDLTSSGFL
Nature of the assay: DRE-Luciferase Reporter Assay (Alternate Method) (Example 1B). The class given is cell-based, murine or human. Particulars: cell line and AHR activating ligand not specified. The protocol:
AHR binds to Dioxin Responsive Elements (DRE) upstream of genes that it activates. One measure of AHR activity is activation of a reporter gene, such as luciferase, downstream of one or multiple DRE elements. Luciferase activity will reflect activation and inhibition of AHR in the cells expressing his reporter.
Murine Hepa1-6 or Hepa-1c1c7 or other murine cell line with a DRE-luciferase reporter either stably or transiently transfected were plated in media in plates (96-well, 384-well or other plates) and incubated overnight at 37° C. in a CO2 incubator or compound and agonist were added at the time of plating. Likewise, human HepG2 or other human cell line with a DRE-luciferase reporter either stably or transiently transfected were plated in media in plates (96-well, 384-well or other plates) and incubated overnight at 37° C. in a CO2 incubator or compound and agonist were added at the time of plating.
At the time that cells are plated or following incubation overnight, an AHR activating ligand, such as TCDD, kynurenine, ITE (2-(1H-indole-3-ylcarbonyl)-4-thiazolecarboxylic methyl ester), VAF347, BNF (beta-naphthoflavone), FICZ (6-formylindolo(3,2-b) carbazole or other AHR ligands, was added with or without AHR antagonist.
Cells were incubated for 4, 15 or 24 hours or another time point and then lysed for determination of luciferase activity as a read-out of the AHR activation or inhibition. Luciferase was measured with a commercial kit such as the Promega Luciferase kit or any kit or reagents that provide the luciferin substrate for measuring luciferase activity. The level of luciferase with only activating ligand added was the maximum signal while the luciferase with no ligand was the minimum signal. IC50 values were determined as the concentration which inhibits half of the luciferase activity.
Broadly, the IC50 is the midpoint of a concentration-inhibition curve. As for `Cc1[nH]c2c(F)cc(F)cc2c1CCNc1cc(-c2cncc(F)c2)nc2c(C3CC3)cnn12` [I-87, 3-Cyclopropyl-N-(2-(5,7-difluoro-2-methyl-1H-indol-3-yl)ethyl)-5-(5-fluoropyridin-3-yl)pyrazolo[1,5-a]pyrimidin-7-amine], the 50% inhibitory concentration (IC50) was under 500 nM.
For `CC(C)c1cnn2c(NCCc3ccc(O)cc3)cc(-c3cncc(F)c3)nc12` [I-108, 4-[2-[[5-(5-Fluoro-3-pyridyl)-3-isopropyl-pyrazolo[1,5-a]pyrimidin-7-yl]amino]ethyl]phenol] the value was under 500 nM; for `Cc1cnn2c(NCC(=O)c3c[nH]c4ccccc34)cc(-c3cncc(F)c3)nc12` [I-163, 2-[[5-(5-Fluoro-3-pyridyl)-3-methyl-pyrazolo[1,5-a]pyrimidin-7-yl]amino]-1-(1H-indol-3-yl)ethanone], under 500 nM; for `Cc1cnn2c(N[C@@H]3CCc4[nH]c5ccccc5c4C3)cc(-c3cncc(F)c3)nc12` [I-34, (3R)—N-[5-(5-Fluoro-3-pyridyl)-3-methyl-pyrazolo[1,5-a]pyrimidin-7-yl]-2,3,4,9-tetrahydro-1H-carbazol-3-amine], over 1500 nM.
For the molecule `Cc1nn2c(NCCc3c(C)[nH]c4c(F)cc(F)cc34)cc(-c3cncc(F)c3)nc2c1C(C)C` [I-84, N-[2-(5,7-Difluoro-2-methyl-1H-indol-3-yl)ethyl]-5-(5-fluoro-3-pyridyl)-3-isopropyl-2-methyl-pyrazolo[1,5-a]pyrimidin-7-amine], the half-maximal inhibitory concentration (IC50) is over 1500 nM.
To `Cc1cnn2c(NCCc3ccc(O)nc3)cc(-c3cncc(F)c3)nc12` [I-194] belongs over 1500 nM; to `Cc1cnn2c(NC[C@@H](O)c3c[nH]c4ccccc34)cc(-c3cncc(F)c3)nc12` [I-150b, (1S)-2-[[5-(5-Fluoro-3-pyridyl)-3-methyl-pyrazolo[1,5-a]pyrimidin-7-yl]amino]-1-(1H-indol-3-yl)ethanol], 1000 to 1500 nM; to `CC(C)c1cnn2c(N[C@@H]3CCc4[nH]c5ccccc5c4C3)cc(-c3ccccc3)nc12` [I-26, (3R)—N-(3-isopropyl-5-phenyl-pyrazolo[1,5-a]pyrimidin-7-yl)-2,3,4,9-tetrahydro-1H-carbazol-3-amine], over 1500 nM.
For `Fc1cncc(-c2nc(N[C@@H]3CCc4[nH]ccc4C3)c3ncccc3n2)c1` [I-252b, 2-(5-Fluoro-3-pyridyl)-N-[(5R)-4,5,6,7-tetrahydro-1H-indol-5-yl]pyrido[3,2-d]pyrimidin-4-amine] the value was under 500 nM; for `O=C(O)c1cnn2c(NC3CCc4[nH]c5ccccc5c4C3)nc(-c3cncc(F)c3)nc12` (stereo not drawn) [I-287], over 1500 nM.
In turn, `Fc1cncc(-c2nc(NC3CCc4[nH]c5ccccc5c4C3)n3ncc(-c4ncc[nH]4)c3n2)c1` (stereo not drawn) [I-273] registered an IC50 of 1000 to 1500 nM.
On to `Cc1c(-c2cncc(F)c2)nc2c(C)cnn2c1N[C@@H]1CCc2[nH]c3ccccc3c2C1` [I-157], for which the IC50 was over 1500 nM.
To `CC(C)c1cnn2c(N[C@H]3Cc4[nH]c5ccccc5c4C3)nc(-c3cncc(F)c3)nc12` [I-263b, (2R)—N-[2-(5-fluoro-3-pyridyl)-8-isopropyl-pyrazolo[1,5-a][1,3,5]triazin-4-yl]-1,2,3,4-tetrahydrocyclopenta[b]indol-2-amine] belongs 1000 to 1500 nM; to `Cc1cnn2c(NCCc3c[nH]cn3)cc(-c3cncc(F)c3)nc12` [I-207], over 1500 nM.
For `Fc1cncc(-c2nc(NC3CCc4[nH]c5ccccc5c4C3)n3ncc(CNC4CC4)c3n2)c1` (stereo not drawn) [I-276] the value was under 500 nM; for `CC(C)c1cnn2c(NC3Cc4ccccc4C3)cc(-c3cncc(F)c3)nc12` [I-44, 5-(5-Fluoro-3-pyridyl)-N-indan-2-yl-3-isopropyl-pyrazolo[1,5-a]pyrimidin-7-amine], over 1500 nM.
On to `O=C(c1cnn2c(N[C@@H]3CCc4[nH]c5ccccc5c4C3)cc(-c3cncc(F)c3)nc12)N1CCOCC1` [I-24, [5-(5-Fluoro-3-pyridyl)-7-[[(3R)-2,3,4,9-tetrahydro-1H-carbazol-3-yl]amino]pyrazolo[1,5-a]pyrimidin-3-yl]-morpholino-methanone], for which the IC50 was over 1500 nM.
In the case of `Cc1cnn2c(NC[C@H](C)c3c[nH]c4ccccc34)cc(-c3cncc(F)c3)nc12` [I-160b, 5-(5-Fluoro-3-pyridyl)-N-[(2R)-2-(1H-indol-3-yl)propyl]-3-methyl-pyrazolo[1,5-a]pyrimidin-7-amine], the IC50 was over 1500 nM.
To `CC(C)c1cnn2c(N[C@@H]3Cc4ccc(O)cc4C3)cc(-c3cncc(F)c3)nc12` [I-234, (2R)-2-[[5-(5-Fluoro-3-pyridyl)-3-isopropyl-pyrazolo[1,5-a]pyrimidin-7-yl]amino]indan-5-ol] belongs 500 to 1000 nM; to `C=Cc1cnn2c(NCCc3c[nH]c4ccccc34)cc(-c3cncc(F)c3)nc12` [I-230, 5-(5-Fluoro-3-pyridyl)-N-[2-(1H-indol-3-yl)ethyl]-3-vinyl-pyrazolo[1,5-a]pyrimidin-7-amine], under 500 nM; to `CC(C)c1cnn2c(N[C@@H]3CCc4[nH]c5ccccc5c4C3)cc(-c3cccnc3)nc12` [I-245, (3R)—N-[3-Isopropyl-5-(3-pyridyl)pyrazolo[1,5-a]pyrimidin-7-yl]-2,3,4,9-tetrahydro-1H-carbazol-3-amine], over 1500 nM.
`OCc1cnn2c(NCCc3c[nH]c4c(O)cccc34)cc(-c3cncc(F)c3)nc12` [I-133, 3-[2-[[5-(5-fluoro-3-pyridyl)-3-(hydroxymethyl)pyrazolo[1,5-a]pyrimidin-7-yl]amino]ethyl]-1H-indol-7-ol] gave an IC50 of under 500 nM.
For `CC(C)c1cnn2c(N[C@H]3CCc4[nH]c5c(F)cc(F)cc5c4C3)nc(-c3cncc(F)c3)nc12` [I-139a, (3S)-6,8-difluoro-N-[2-(5-fluoro-3-pyridyl)-8-isopropyl-pyrazolo[1,5-a][1,3,5]triazin-4-yl]-2,3,4,9-tetrahydro-1H-carbazol-3-amine] the value was under 500 nM.
To `CNC(=O)[C@@H](Cc1c[nH]c2ccccc12)Nc1cc(-c2cncc(F)c2)nc2c(C)cnn12` [I-189] belongs over 1500 nM; to `CC(C)c1cnn2c(N[C@@H]3CCc4[nH]c(-c5ccccc5)cc4C3)nc(-c3cncc(F)c3)nc12` [I-249b, 2-(5-Fluoro-3-pyridyl)-8-isopropyl-N-[(5R)-2-phenyl-4,5,6,7-tetrahydro-1H-indol-5-yl]pyrazolo[1,5-a][1,3,5]triazin-4-amine], under 500 nM.
To `CC(C)c1cnn2c(NC3CCc4cc(O)ccc4C3)cc(-c3cncc(F)c3)nc12` (stereo in doubt) [I-82b, (2R)-2-[[5-(5-fluoro-3-pyridyl)-3-isopropyl-pyrazolo[1,5-a]pyrimidin-7-yl]amino]tetralin-6-ol] belongs over 1500 nM; to `COc1cccc2c(CCNc3cc(-c4cncc(F)c4)nc4c(C)cnn34)c[nH]c12` [I-179, 5-(5-Fluoro-3-pyridyl)-N-[2-(7-methoxy-1H-indol-3-yl)ethyl]-3-methyl-pyrazolo[1,5-a]pyrimidin-7-amine], under 500 nM.
`Cc1cnn2c(NCCc3ccc(NS(C)(=O)=O)cc3)cc(-c3cncc(F)c3)nc12` [I-195, N-[4-[2-[[5-(5-Fluoro-3-pyridyl)-3-methyl-pyrazolo[1,5-a]pyrimidin-7-yl]amino]ethyl]phenyl]methanesulfonamide] yielded a half-maximal inhibitory concentration (IC50) of over 1500 nM.
Consider `Fc1cncc(-c2nc(N[C@@H]3CCc4[nH]c5ccccc5c4C3)n3ncc(C4CCCCC4)c3n2)c1` [I-123, (3R)—N-[8-Cyclohexyl-2-(5-fluoro-3-pyridyl)pyrazolo[1,5-a][1,3,5]triazin-4-yl]-2,3,4,9-tetrahydro-1H-carbazol-3-amine], for which the IC50 was in the range of 1000 to 1500 nM.
For `Cc1cnn2c(N[C@@H]3CCc4[nH]c5c(F)cccc5c4C3)cc(-c3cncc(F)c3)nc12` [I-216a, (3R)-8-Fluoro-N-[5-(5-fluoro-3-pyridyl)-3-methyl-pyrazolo[1,5-a]pyrimidin-7-yl]-2,3,4,9-tetrahydro-1H-carbazol-3-amine] the value was 500 to 1000 nM.
